According to patent US9326506B2, “Preparation method, agricultural composition and applications of natural brassinolide analogs” (CHENGDU NEWSUN CROPSCIENCE CO., LTD, priority 2012, dated 2016):

Tested on: rice
Test: Low temperature assay on rice seedlings
Assay type: in vivo
Description: According to a low temperature assay, we measured parameters including plant height, number of leaf, area of leaf, number of tiller, weight of root at low temperature to completely determine effects of the natural brassinolide analogues on the resistance to low temperature of a plant.
The natural brassinolide analogues, BR1, BR2, BR3, BR4, BR5 and BR6, used herein, were those prepared by the method of Example 1. Respectively the analogues were dissolved into 95% (V/V) ethanol solution, and then diluted with pure water to 1 mg/L, 0.1 mg/L, 0.01 mg/L, 0.001 mg/L and 0.0001 mg/L. In addition, pure water was used as a control.
After rice seeds were disinfected by using 5% sodium hypochlorite solution treatment, they were rinsed with distilled water until their pH>7, placed into a petri dish in a dark incubator, and cultured by using water at 30° C.±2° C. for 9 days. Then respectively the nine-day-old etiolated seedlings of rice were immersed in the above solutions containing different concentrations of the natural brassinolide analogues or pure water, and cultured at the temperature of 1° C., 2° C., 3° C., 4° C. and 5° C. for 24 hr. The parameters including plant height, area of leaf and weight of root after 3, 6, 9 and 12 days and number of leaf and number of tiller after 12 days were measured.

## C=C(C(C)C)[C@@H](O)[C@H](O)[C@@H](C)[C@H]1CCC2C3COC(=O)C4C[C@H](O)[C@H](O)C[C@]4(C)C3CC[C@@]21C (stereo partly drawn) [BR3]
0.0001 mg/l, 1 °C, 3 days
  Area of leaf: 9.8 cm^2
  Height: 6.8 cm
  Weight of root: 2.8 g
0.0001 mg/l, 1 °C, 6 days
  Area of leaf: 11 cm^2
  Height: 6.9 cm
  Weight of root: 3 g
0.0001 mg/l, 1 °C, 9 days
  Area of leaf: 12.2 cm^2
  Height: 7.1 cm
  Weight of root: 3.4 g
0.0001 mg/l, 1 °C, 12 days
  Area of leaf: 13.1 cm^2
  Height: 7.2 cm
  Number of leaf: 3
  Number of tiller: 3
  Weight of root: 3.9 g
0.0001 mg/l, 2 °C, 3 days
  Area of leaf: 10 cm^2
  Height: 6.8 cm
  Weight of root: 2.8 g
0.0001 mg/l, 2 °C, 6 days
  Area of leaf: 11.7 cm^2
  Height: 7 cm
  Weight of root: 3.0 g
0.0001 mg/l, 2 °C, 9 days
  Area of leaf: 12.1 cm^2
  Height: 7.1 cm
  Weight of root: 3.2 g
0.0001 mg/l, 2 °C, 12 days
  Area of leaf: 13 cm^2
  Height: 7.4 cm
  Number of leaf: 3
  Number of tiller: 3
  Weight of root: 3.9 g
0.0001 mg/l, 3 °C, 3 days
  Area of leaf: 10 cm^2
  Height: 6.9 cm
  Weight of root: 2.5 g
0.0001 mg/l, 3 °C, 6 days
  Area of leaf: 11.8 cm^2
  Height: 7.1 cm
  Weight of root: 2.6 g
0.0001 mg/l, 3 °C, 9 days
  Area of leaf: 12.1 cm^2
  Height: 7.4 cm
  Weight of root: 2.9 g
0.0001 mg/l, 3 °C, 12 days
  Area of leaf: 13.2 cm^2
  Height: 7.5 cm
  Number of leaf: 3
  Number of tiller: 2
  Weight of root: 2.9 g
0.0001 mg/l, 4 °C, 3 days
  Area of leaf: 10 cm^2
  Height: 6.9 cm
  Weight of root: 2.5 g
0.0001 mg/l, 4 °C, 6 days
  Area of leaf: 11.5 cm^2
  Height: 7.3 cm
  Weight of root: 2.6 g
0.0001 mg/l, 4 °C, 9 days
  Area of leaf: 13 cm^2
  Height: 7.5 cm
  Weight of root: 2.9 g
0.0001 mg/l, 4 °C, 12 days
  Area of leaf: 13.4 cm^2
  Height: 7.5 cm
  Number of leaf: 3
  Number of tiller: 2
  Weight of root: 2.9 g
0.0001 mg/l, 5 °C, 3 days
  Area of leaf: 10.2 cm^2
  Height: 7.0 cm
  Weight of root: 2.5 g
0.0001 mg/l, 5 °C, 6 days
  Area of leaf: 12 cm^2
  Height: 7.4 cm
  Weight of root: 2.5 g
0.0001 mg/l, 5 °C, 9 days
  Area of leaf: 13.4 cm^2
  Height: 7.5 cm
  Weight of root: 2.9 g
0.0001 mg/l, 5 °C, 12 days
  Area of leaf: 14 cm^2
  Height: 7.7 cm
  Number of leaf: 3
  Number of tiller: 2
  Weight of root: 3.0 g
0.001 mg/l, 1 °C, 3 days
  Area of leaf: 10 cm^2
  Height: 6.9 cm
  Weight of root: 2.8 g
0.001 mg/l, 1 °C, 6 days
  Area of leaf: 11.3 cm^2
  Height: 7.1 cm
  Weight of root: 3.1 g
0.001 mg/l, 1 °C, 9 days
  Area of leaf: 12.6 cm^2
  Height: 7.1 cm
  Weight of root: 3.2 g
0.001 mg/l, 1 °C, 12 days
  Area of leaf: 13 cm^2
  Height: 7.3 cm
  Number of leaf: 3
  Number of tiller: 3
  Weight of root: 3.9 g
0.001 mg/l, 2 °C, 3 days
  Area of leaf: 9.8 cm^2
  Height: 6.9 cm
  Weight of root: 2.8 g
